Several values for one entry are separate records, joined by “and”; a condition that tells them apart may be missing. Equal values may be shown once.

Here are results for six molecules from patent US6833456B2, “Indolyl-urea derivatives of thienopyridines useful as antiangiogenic agents, and methods for their use” (Agouron Pharmaceuticals, Inc., priority 2002, dated 2004).

One series has as its target T1, KDR (VEGFR2) (Homo sapiens, UniProt P35968).
T1 construct: expressed in transfected cells; host or cells: porcine aorta endothelial (PAE) cells
Briefly: KDR (VEGFR2) phosphorylation in PAE-KDR cells assay. The following applies: PAE cells overexpressing human KDR, VEGF stimulated; read-out: PAE KDR autophos IC50. It counts as cell-based. The essentials: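 PAE cells overexpressing human KDR, serum-starved 16 h (0.1% FBS), treated with compound 1 h at 37° C (0.5% DMSO), then stimulated 8 min with 500 ng/ml VEGF plus 2 mM Na3VO4. Lysate KDR phosphotyrosine measured by capture ELISA (anti-pY HRP, 450 nm); IC50 by four-parameter fit.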

The next series concerns HUVEC. Put plainly: bFGF HUVEC proliferation. Type of series: cell-based, human. The following applies: bFGF stimulated HUVEC.
The nature of the next series: Mouse PK assay. Type of series: in vivo, B6 female mice. The following applies: po; for AUC / Cmax: female, B6, mouse, plasma, 50 mg/kg; for Cmax: p.o., read-out: Mouse Cmax, po ng-h/mL. The essentials:
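Plasma levels were measured by HPLC with UV detection after acetonitrile precipitation, using extracted standards, in blood taken up to 4 h (0.5, 1, 2, 4 h) post-dose. Dosing: 50 mg/kg orally or intraperitoneally to two groups of four female B6 mice, vehicle PEG 400:acidified H2O 30:70 suspension.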

Series [1] can be described thus: Human liver microsome (HLM) assay. It counts as in vitro ADME. The following applies: human liver microsomes. As for the experimental part: Compound metabolism in human liver microsomes was measured by LC-MS analytical assay procedures as follows. First, human liver microsomes (HLM) were thawed and diluted to 5 mg/mL with cold 100 mM potassium phosphate (KPO4) buffer. Appropriate amounts of KPO4 buffer, NADPH-regenerating solution (containing B-NADP, glucose-6-phosphate, glucose-6-phosphate dehydrogenase, and MgCl2), and HLM were preincubated in 13×100 mm glass tubes at 37° C. for 10 min. (3 tubes per test compound—triplicate). Test compound (5 μM final) was added to each tube to initiate reaction and was mixed by gentle vortexing, followed by incubation at 37° C. […] Samples were centrifuged at 4000 rpm for 20 min. to precipitate proteins and salt (Beckman Allegra 6KR, S/N ALK98DO6, #634). Supernatant was transferred to new 12×75 mm glass tubes and evaporated by Speed-Vac centrifugal vacuum evaporator. Samples were reconstituted in 200 μL 0.1% formic acid/acetonitrile (90/10) and vortexed vigorously to dissolve. The samples were then transferred to separate polypropylene microcentrifuge tubes and centrifuged at 14000×g for 10 min. (Fisher Micro 14, S/N M0017580). […]
The combined compound samples were injected into the LC-MS system, composed of a Hewlett-Packard HP1100 diode array HPLC and a Micromass Quattro II triple quadruple mass spectrometer operating in positive electrospray SIR mode (programmed to scan specifically for the molecular ion of each test compound). Each test compound peak was integrated at each timepoint. […]

T1 sequence (P35968 20-1356): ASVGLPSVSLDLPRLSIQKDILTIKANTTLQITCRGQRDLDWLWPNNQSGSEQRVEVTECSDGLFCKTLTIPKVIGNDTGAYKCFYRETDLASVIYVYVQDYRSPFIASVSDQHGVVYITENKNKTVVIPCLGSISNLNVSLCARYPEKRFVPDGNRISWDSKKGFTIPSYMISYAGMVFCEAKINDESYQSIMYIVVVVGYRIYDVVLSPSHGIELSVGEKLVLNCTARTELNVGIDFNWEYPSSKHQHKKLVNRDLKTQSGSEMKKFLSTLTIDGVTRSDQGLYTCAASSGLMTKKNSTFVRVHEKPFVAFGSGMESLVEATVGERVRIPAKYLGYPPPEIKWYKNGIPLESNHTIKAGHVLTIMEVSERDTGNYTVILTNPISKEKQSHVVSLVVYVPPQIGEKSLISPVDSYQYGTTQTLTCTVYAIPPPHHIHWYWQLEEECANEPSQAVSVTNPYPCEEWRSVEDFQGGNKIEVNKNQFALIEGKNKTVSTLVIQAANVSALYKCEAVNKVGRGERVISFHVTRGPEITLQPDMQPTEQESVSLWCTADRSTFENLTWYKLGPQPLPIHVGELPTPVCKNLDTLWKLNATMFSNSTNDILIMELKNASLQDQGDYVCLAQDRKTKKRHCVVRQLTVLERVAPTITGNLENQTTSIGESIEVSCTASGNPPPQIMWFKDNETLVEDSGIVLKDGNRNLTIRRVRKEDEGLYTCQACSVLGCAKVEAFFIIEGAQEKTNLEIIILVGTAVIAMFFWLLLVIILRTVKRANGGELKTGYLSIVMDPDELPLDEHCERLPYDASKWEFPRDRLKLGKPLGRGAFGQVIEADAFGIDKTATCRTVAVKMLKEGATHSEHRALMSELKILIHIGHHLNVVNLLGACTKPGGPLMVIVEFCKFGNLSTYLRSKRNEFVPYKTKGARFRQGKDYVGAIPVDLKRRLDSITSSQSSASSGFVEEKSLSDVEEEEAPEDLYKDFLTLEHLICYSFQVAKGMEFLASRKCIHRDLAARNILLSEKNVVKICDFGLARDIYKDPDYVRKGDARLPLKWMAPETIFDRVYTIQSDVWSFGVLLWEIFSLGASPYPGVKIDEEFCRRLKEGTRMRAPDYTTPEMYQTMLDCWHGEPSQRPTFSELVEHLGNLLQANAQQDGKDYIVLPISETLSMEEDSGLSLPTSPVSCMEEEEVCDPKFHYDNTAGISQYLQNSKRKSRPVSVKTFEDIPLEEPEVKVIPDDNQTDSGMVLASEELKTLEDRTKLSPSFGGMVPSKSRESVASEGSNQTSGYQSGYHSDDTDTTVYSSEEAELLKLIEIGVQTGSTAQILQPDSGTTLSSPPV

For `COC[C@H]1CCCN1C(=O)c1cc2nccc(Nc3ccc4c(c3)cc(C)n4C(=O)NC3CC3)c2s1` [Example 1d, 5-[2-(2R-Methoxymethyl-pyrrolidine-1-carbonyl)-thieno[3,2-b]pyridin-7-ylamino]-2-methyl-indole-1-carboxylic acid cyclopropylamide], on KDR (VEGFR2), the IC50 is 0.45 nM and 0.51 nM. Also, inhibition in the series on HUVEC (Homo sapiens, HUVEC) was half-maximal at 24 nM (IC50). In addition, the IC50 with HUVEC was determined as 23.4 nM. For the same molecule, in “Mouse PK assay”, the AUC was determined as 5070 ng·h/mL; the Cmax is 2820 ng/mL; the “Mouse Cmin, po” value is 32 ng/mL. Also, in series [1], the “% remain (HLM-NADPH, 0.5 h)” value was 85%.
Consider `CNC(=O)n1c(C)cc2cc(Nc3ccnc4cc(-c5nccn5C)sc34)ccc21` [Example 2a, 5-(2-[1-methyl-1H-imidazol-2-yl]thieno[3,2-b]pyridin-7-ylamino)-2-methylindole-1-carboxylic acid methylamide], for which, at KDR (VEGFR2), the IC50 was 0.36 nM and 0.28 nM and 0.32 nM. For the same molecule, in the series “Mouse PK assay”, the AUC came out at 1170 ng·h/mL; the Cmax is 1010 ng/mL; the “Mouse Cmin, po” value is listed as 19 ng/mL. In addition, in series [1], the “% remain (HLM-NADPH, 0.5 h)” value is 91.1% and the “% remain (HLM-UDPGA, 0.5 h)” value came to 101.8%.
As for `CNC(=O)n1c(C)cc2cc(Nc3ccnc4cc(C(=O)N5CCC[C@H]5CO)sc34)ccc21` [Example 2b, 5-(2-[(S)-2-(hydroxymethyl)pyrrolidine-1-carbonyl]thieno[3,2-b]pyridin-7-ylamino)-2-methylindole-1-carboxylic acid methylamide], the IC50 at KDR (VEGFR2) is 1.42 nM and 1.43 nM and 1.27 nM. Moreover, in the series “Mouse PK assay”, the AUC was 2800 ng·h/mL; the Cmax came out at 1900 ng/mL; the “Mouse Cmin, po” value was determined as 10 ng/mL. Further, in series [1], the “% remain (HLM-NADPH, 0.5 h)” value came out at 92.1% and the “% remain (HLM-UDPGA, 0.5 h)” value is given as 104.8%.
As for `COC[C@@H]1CCCN1C(=O)c1cc2nccc(Nc3ccc4c(c3)cc(C)n4C(=O)NC3CC3)c2s1` [Example 2c, 5-(2-[(S)-2-(methoxymethyl)pyrrolidine-1-carbonyl]thieno[3,2-b]pyridin-7-ylamino)-2-methylindole-1-carboxylic acid cyclopropylamide], at KDR (VEGFR2), the IC50 is 0.67 nM and 0.42 nM (2×). For the same molecule, the IC50 with HUVEC (Homo sapiens, HUVEC) was 41 nM. Besides, in the series with HUVEC, the IC50 was 27 nM and 33 nM and 24 nM and 40 nM. Also, in “Mouse PK assay”, the area under the curve (AUC) is 6700 ng·h/mL; the Cmax stood at 3700 ng/mL; the “Mouse Cmin, po” value is 35 ng/mL. Besides, in series [1], the “% remain (HLM-NADPH, 0.5 h)” value was 76.2%.
With `COC[C@@H]1CCCN1C(=O)c1cc2nccc(Oc3ccc4c(c3)cc(C)n4C(=O)NC3CC3)c2s1` [Example 4b, 5-(2-[(S)-2-(methoxymethyl)pyrrolidine-1-carbonyl]thieno[3,2-b]pyridin-7-yloxy)-2-methylindole-1-carboxylic acid cyclopropylamide], at KDR (VEGFR2), the half-maximal inhibitory concentration (IC50) is 0.21 nM (2×) and 0.25 nM. Besides, the IC50 with HUVEC (Homo sapiens, HUVEC) was 11.7 nM. Further, in the series “Mouse PK assay”, the AUC was 3640 ng·h/mL; the Cmax stood at 2110 ng/mL; the “Mouse Cmin, po” value was 108 ng/mL. Moreover, the “% remain (HLM-NADPH, 0.5 h)” value in series [1] was determined as 70.9%.
Turning to `C#CCNC(=O)n1c(C)cc2cc(Oc3ccnc4cc(C(=O)N5CCC[C@H]5COC)sc34)ccc21` [Example 4c, 5-(2-[(S)-2-(methoxymethyl)pyrrolidine-1-carbonyl]thieno[3,2-b]pyridin-7-yloxy)-2-methylindole-1-carboxylic acid prop-2-ynylamide], the IC50 on KDR (VEGFR2) was 0.28 nM and 0.24 nM and 0.36 nM. In addition, in the series “Mouse PK assay”, the AUC was 8310 ng·h/mL; the Cmax was determined as 2760 ng/mL; the “Mouse Cmin, po” value was 313 ng/mL. Further, in series [1], the “% remain (HLM-NADPH, 0.5 h)” value came out at 76.1%.
